# Measured values reported in US12577235B2, “Crystalline form of CXCR2 antagonist and application thereof” (Shenzhen Optimum Biological Technology Co., Ltd, priority 2019, dated 2026).
# Columns and labels:
# [1] = Crystalline form stability assay of crystalline form A - solvent water activity; assay type: physicochemical; conditions: for Crystalline form (XRPD): 20° C., 4 days
# Method: The solutions were centrifuged to give precipitates, and the precipitates were dried under vacuum at 50° C. and subjected to XRPD.
# [2] = test system: PPE-induced SD rat COPD model; assay: Therapeutic effect on PPE-induced COPD model; assay type: in vivo, SD rats; conditions: dose not stated (technical effects summary)
# Text: • To test the therapeutic effect of the compound on PPE-induced SD rat COPD model. Materials: • Animals: SD rats (male, 160-180 g, 6 weeks age) • Test compounds: porcine pancreatic elastase (Sigma, 0.068 U/μL); Danirixin, compound 1. • Grouping: 1) vehicle group • 2) COPD model group (porcine pancreatic elastase modeling group/solvent group) • 3) PPE+Danirixin (30 mpk) • 4) PPE+compound 1 (10 mpk) • 5) PPE+compound 1 (30 mpk) Procedures: • 1. Modeling: PPE was given retrolingually. • 2. Administration: an aqueous solution of 1% DMSO/20% PEG400/79% (HP-b-CD) was used as the vehicle, and the drugs were administrated intragastrically everyday at a volume of 2 mL/rat for 4 weeks. • 3. Endpoint: On day 29, pulmonary function test, sample collection, and inflammatory cell count in bronchoalveolar lavage fluid.
# Bronchoalveolar lavage: The rats were sacrificed, and dissected at the neck. Trachea intubation was performed. 1 mL of cold […] at 4° C. was infused for 3 lavages, and the lavage fluids were combined. The combined lavage fluids were centrifuged at 1200 rpm/min for 5 min, and the supernatant was discarded. The cell suspension was collected;
# [3] = Stability assay of solid crystalline form A at high temperature, high humidity, high temperature and high humidity, and illumination; assay type: physicochemical; conditions: for Stability and druggability (conclusion in words): solid state stress conditions
# Method: The samples were placed in conditions of high temperature (60° C.), high humidity (92.5% humidity, 25° C.), high temperature and high humidity (60° C./75% humidity), and under illumination (including in the dark as control) for stability assay. For samples in a 60° C./75% thermostatic incubator and a 92.5% RH desiccator, the vials were sealed using films. On the films 5 small holes were provided to ensure that the sample was in sufficient contact with atmospheric air. For samples at 60° C., under illumination and in the dark, the vials were tightly capped (for the sample in the dark the vial was wrapped with tin foil). The samples were tested on day 10 for high humidity (92.5% humidity) condition, on days 5 and 10 for high temperature (60° C.) condition, on days 10 and 30 for high temperature and high humidity (60° C./75% humidity) condition, and on day 10 for illumination condition.
# [4] = high humidity (92.5% humidity, 25° C.), day 0
# [5] = high humidity (92.5% humidity, 25° C.), day 10
# [6] = high temperature (60° C.), day 0
# [7] = high temperature (60° C.), day 5
# [8] = high temperature (60° C.), day 10
# [9] = in the dark for 10 days (control)
structure (smiles),measurement,setting,value
O=C(Nc1ccc(Cl)c(S(=O)(=O)[C@H]2CCCNC2)c1O)N[C@@H]1CCCc2cc(C(F)(F)F)oc21 [crystalline form A],Stability of the crystalline form in solvents (in words),"[1]; methanol, ethanol, methanol/water, water",stable in the above solvents
same,Crystalline form (XRPD),"[1]; stirred in ethanol, 100 mg/mL",Crystalline form A
same,Crystalline form (XRPD),"[1]; stirred in methanol, 100 mg/mL",Crystalline form A
same,Crystalline form (XRPD),"[1]; stirred in methanol/water = 1/1.5, 100 mg/mL",Crystalline form A
same,Crystalline form (XRPD),"[1]; stirred in water, 100 mg/mL",Crystalline form A
same,Number of neutrophils,[2],significantly reduce the number of neutrophils
same,Pulmonary function,[2],significantly improve the pulmonary function
same,Appearance,"[3]; 60° C./75% humidity, day 0",White powder
same,Crystalline form,"[3]; 60° C./75% humidity, day 0",Crystalline
same,Appearance,"[3]; 60° C./75% humidity, day 10",White powder
same,Crystalline form,"[3]; 60° C./75% humidity, day 10",Crystalline
same,Appearance,"[3]; 60° C./75% humidity, day 30",White powder
same,Crystalline form,"[3]; 60° C./75% humidity, day 30",Crystalline
same,Appearance,[3]; [4],White powder
same,Crystalline form,[3]; [4],Crystalline
same,Appearance,[3]; [5],White powder
same,Crystalline form,[3]; [5],Crystalline
same,Appearance,[3]; [6],White powder
same,Crystalline form,[3]; [6],Crystalline
same,Appearance,[3]; [7],White powder
same,Crystalline form,[3]; [7],Crystalline
same,Appearance,[3]; [8],White powder
same,Crystalline form,[3]; [8],Crystalline
same,Appearance,[3]; [9],White
same,Crystalline form,[3]; [9],Crystalline
same,Stability and druggability (conclusion in words),[3]; listed as crystalline form A of compound 1,good stability and druggability
same,Stability and druggability (conclusion in words),[3]; listed as crystalline form A of the compound 1,good stability and desirable druggability
same,Appearance,[3]; under illumination for 10 days,White
same,Crystalline form,[3]; under illumination for 10 days,Crystalline
